Measured values: patent publication EP4670717A1, “PYRROLIDINE-FUSED MYRTANOL DERIVATIVES AS INHIBITORS AND/OR DEGRADERS OF IDO1 UND USE THEREOF” (Max-Planck-Gesellschaft zur Förderung der Wissenschaften …, priority 2024, dated 2025)
Entries after “also recorded” stand apart in the source; their conditions may differ.

Key:
IDO1 [1] = target: T1, IDO1 (Homo sapiens, UniProt P14902); assay: Kyn assay in BxPC-3 cells (Kyn levels after IFN-γ and Trp); assay type: cell-based; details: for IC50: BxPC-3 cells incubated with IFN-γ, Trp and the compounds for 48 h, read-out: Kyn assay IC50 ± SD; for activity in the cell-based kynurenine assay: result in words;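 for all read-outs here: kyn levels expressed relative to DMSO-treated control cells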
T1 construct: BxPC3 cells were seeded in phenol red-free RPMI 1640 medium; endogenous in cells; host or cells: BxPC3 cells stimulated with IFN-γ (50 ng/mL)
T1 sequence (P14902 whole entry): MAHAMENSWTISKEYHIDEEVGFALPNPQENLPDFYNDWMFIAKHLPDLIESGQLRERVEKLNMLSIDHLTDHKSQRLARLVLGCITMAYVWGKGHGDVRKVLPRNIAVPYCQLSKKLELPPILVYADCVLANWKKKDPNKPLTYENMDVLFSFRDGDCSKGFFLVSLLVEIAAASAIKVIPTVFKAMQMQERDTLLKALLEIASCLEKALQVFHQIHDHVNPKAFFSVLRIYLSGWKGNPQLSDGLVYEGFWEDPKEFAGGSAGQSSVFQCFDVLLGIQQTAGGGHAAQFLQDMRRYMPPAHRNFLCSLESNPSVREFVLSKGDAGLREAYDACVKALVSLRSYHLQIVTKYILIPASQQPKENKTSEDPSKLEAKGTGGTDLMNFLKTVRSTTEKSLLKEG
Protocol: BxPC3 cells were seeded in phenol red-free RPMI 1640 medium in 1536-well or 384-well plates (Greiner #782086, Corning #3770) 24 h prior to the addition of compounds, IFN-γ (50 ng/mL, PeproTech) and L-Trp (380 µM, Sigmal-Aldrich). After 48 h of incubation, first cell viability was accessed by the addition of Hoechst-33342. Afterwards, trichloroacetic acid (TCA, Sigma-Aldrich) was added to a final concentration of 7 % and incubated for 10 min prior to a centrifugation step of 10 min at 1620 × g. Kyn levels were determined by means of the Kyn sensor^7 at a final concentration of 17.5 µM in sensor buffer (50 mM H3PO4 and 120 mM NaCl (pH=1)). Fluorescence intensity (excitation: 535 nm, emission: 595 nm) was measured using a Spectramax Paradigm reader (Molecular Devices). Data were normalized to the values for cells that were treated with DMSO.
For the manual assay, BxPC3 or SKOV3 cells were seeded in clear 96-well or 384-well plates, respectively, 24 h prior to compound treatment and IFN-γ (50 or 5 ng/mL, respectively) and L-Trp (380 µM) addition as described before.^7 48 h after treatment, TCA was added and Kyn levels were detected by means of 2 % w/v of p-DMAB (Ehrlich reagent) in acetic acid as described by Braun et al^29. The absorbance of the Ehrlich reagent was detected at 492 nm and at 650 nm as background control was measured on Spark® multimode microplate plate reader (Tecan, Austria). Kyn levels were determined by subtracting the absorbance value at 650 nm and presented relative to the DMSO control. Dose-response curves and IC50 values were generated and fitted with GraphPad Prism 6.0 (GraphPad software, USA) using four-parameter variable slope non-linear regression curve fit.
Cells were incubated with IFN-γ, Trp and the compounds for 48 h prior to detection of Kyn levels.

[2] = target: T2, recombinant human IDO1 (rhIDO1) (Homo sapiens, UniProt P14902); assay: IDO1 enzymatic assay with recombinant protein, Kyn detection with p-DMAB; assay type: biochemical; details: in vitro inhibition at 59 uM; pre-incubated with compounds at 37°C for 40 min
T2 construct: Full-length rhIDO protein (1 µM) in 50 mM potassium phosphate buffer; GST (cleaved yes); made in house; host or cells: E. coli
T2 sequence (P14902 whole entry): as above
From the text: Reduction of the kynurenine level in the cell-based model employed for initial SAR exploration can be due to inhibition of enzymatic activity, degradation of IDO1, or both (Table B-2). In order to differentiate between these different activities, we explored the modes of action of selected compounds in an in vitro assay employing recombinant human IDO1 (rhIDO1) monitoring enzymatic activity only, and we characterized the degradation efficiency by means of Western blotting, determining maximum degradation levels at 0.1µM (Dmax) and half maximum degradation concentration (DC50) (Table B-2). Table B-2 in vitro inhibition and degradation of IDO1 by selected compounds. […] Data are mean values ± SD (n = 4, except for compounds 1, 11, and 19 (n=2)). […] Data are mean values of n biological replicates. Dmax corresponds to maximum levels of IDO1 degradation at 0.1 µM.
Full-length rhIDO protein (1 µM) in 50 mM potassium phosphate buffer (50 mM KH2PO4 and 50 mM K2HPO4, pH 6.5) was incubated with the respective compounds for 40 min at 37 °C prior to the addition of 10 mM ascorbic acid, 10 µM methylene blue, 2 mM Trp and 100 µg/mL catalase (Sigma-Aldrich, C100). Samples were incubated for 60 min followed by the addition of trichloroacetic acid to a final concentration of 7 % and further incubation for 30 min at 37 °C. Kyn levels were detected by the addition of an equal volume of 2 % (w/v) p-DMAB in acetic acid and absorbance was measured at 492 nm and 650 nm as a background control. Values are presented relative to the DMSO control. Dose-response curves and IC50 values were generated and fitted with GraphPad Prism 6.0 (GraphPad software, USA) using four-parameter variable slope non-linear regression curve fit.

IDO1 [3] = target: T1, IDO1; assay: IDO1 degradation in BxPC3 cells, IDO1 protein levels by immunoblotting; assay type: cell-based; details: 50 ng/ml IFN-γ 24 h, washout, compound (100 nM) 24 h, maximum IDO1 degradation at 0.1 µM; for Dmax at 0.1 µM: BXPC-3, BxPC3 cells; for Dmax [%] (n): BxPC3 cells;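 for all read-outs here: IDO1 bands on Western blots detected with fluorescent dye-labelled secondary antibodies and quantified by band intensity, values are means of n biological replicates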
Protocol: To analyze IDO1 levels, IFN-γ-stimulated BxPC3 cells (50 ng/mL IFN-γ), U2OS cells (5 ng/mL IFN-γ), HEK^rhIDO1 (HEK293T cells electroporated with rhIDO1), SKOV3 and BT549 cells were treated with compounds for the indicated times (6 h to 24 h) followed by cell lysis (150 mM sodium chloride in 50 mM Tris (pH 8.0) and 1% NP-40 Alternative, protease and phosphatase inhibitors). Protein concentrations were determined (DC protein assay, Bio-Rad) followed by addition of 1 × SDS loading buffer and protein separation by a 10% SDS-PAGE. Separated protein samples were transferred to a polyvinylidene difluoride (PVDF) membrane using a wet-tank blotting system (Bio-Rad). IDO1 as well as vinculin as a loading were detected using the primary antibodies anti-IDO1 (ab211017, abcam or 14-9750-80, Thermo Fisher), anti-vinculin (V9131, Thermo Fisher) and anti-β-actin (ab8227, abcam) in 5 % milk in PBS-buffered saline with 0.05 % (v/v) Tween-20 (PBS-T). Primary antibodies were incubated at 4°C overnight and detected with IRDye-conjugated secondary antibodies (LI-COR Biosciences). IDO1 protein level in BT549 and SKOV3 cells was detected with HRP conjugated secondary antibody and SuperSignal™ West Dura Extended Duration Substrat (Thermo Fisher Scientific). Washing steps were performed with PBS-T. Protein bands were visualized by ChemiDoc™ MP (Bio-Rad) using a fluorescent readout. Band intensities were quantified using Image Lab software.
In order to differentiate between these different activities, we explored the modes of action of selected compounds in an in vitro assay employing recombinant human IDO1 (rhIDO1) monitoring enzymatic activity only, and we characterized the degradation efficiency by means of Western blotting, determining maximum degradation levels at 0.1µM (Dmax) and half maximum degradation concentration (DC50) (Table B-2). […] Data are mean values of n biological replicates. Dmax corresponds to maximum levels of IDO1 degradation at 0.1 µM.

Compound | IC50 (IDO1 [1]) | Dmax at 0.1 µM (IDO1 [3]) | other results
Cc1ccc(NC(=O)OC[C@]23CN(S(=O)(=O)c4ccc(C(C)(C)C)cc4)C[C@H]2C[C@H]2C[C@@H]3C2(C)C)cc1 [compound 1, ((3aS,4R,6R,7aS)-2-((4-(tert-butyl)phenyl)sulfonyl)-5,5-dimethyloctahydro-3aH-4,6-methanoisoindol-3a-yl)methyl p-tolylcarbamate] | 0.2 to 1 µM | – | rhIDO1 enzymatic activity Inhibition [%] [2]: not active; also recorded: inactive
CC(C)(C)c1ccc(S(=O)(=O)N2C[C@H]3C[C@H]4C[C@H](C4(C)C)[C@@]3(COC(=O)Nc3ccc(I)cc3)C2)cc1 [compound 11, ((3aS,4R,6R,7aS)-2-((4-(tert-butyl)phenyl)sulfonyl)-5,5-dimethyloctahydro-3aH-4,6-methanoisoindol-3a-yl)methyl (4-iodophenyl)carbamate] | < 0.2 µM | 37% | fold more potent in the Kyn assay than compound 1 (IDO1 [1]; relative to compound 1): 7 fold; activity in the cell-based kynurenine assay (IDO1 [1]): low nanomolar range; rhIDO1 enzymatic activity Inhibition [%] [2]: not active; also recorded: inactive
C#Cc1ccc(NC(=O)OC[C@]23CN(S(=O)(=O)c4ccc(C(C)(C)C)cc4)C[C@H]2C[C@H]2C[C@@H]3C2(C)C)cc1 [compound 19] | < 0.2 µM | > 60% | activity in the cell-based kynurenine assay (IDO1 [1]): low nanomolar range; inhibition at 59 µM [2]: 49 ± 0.6%; Dmax [%] (n) (IDO1 [3]): 62 ± 10 (5) %
CCC(C)(C)c1ccc(S(=O)(=O)N2C[C@H]3C[C@H]4C[C@H](C4(C)C)[C@@]3(COC(=O)Nc3ccc(I)cc3)C2)cc1 [compound 48, ((3aS,4R,6R,7aS)-5,5-dimethyl-2-((4-(tert-pentyl)phenyl)sulfonyl)octahydro-3aH-4,6-methanoisoindol-3a-yl)methyl (4-iodophenyl)carbamate] | < 0.2 µM | – | –
CC1(C)[C@H]2C[C@@H]3CN(S(=O)(=O)c4ccc([Si](C)(C)C)cc4)C[C@]3(COC(=O)Nc3ccc(I)cc3)[C@@H]1C2 [compound 50, ((3aS,4R,6R,7aS)-5,5-dimethyl-2-((4-(trimethylsilyl)phenyl)sulfonyl)octahydro-3aH-4,6-methanoisoindol-3a-yl)methyl (4-iodophenyl)carbamate] | 0.2 to 1 µM | – | –
COc1cc(C(C)(C)C)ccc1S(=O)(=O)N1C[C@H]2C[C@H]3C[C@H](C3(C)C)[C@@]2(COC(=O)Nc2ccc(I)cc2)C1 [compound 55, ((3aS,4R,6R,7aS)-2-((4-(tert-butyl)-2-methoxyphenyl)sulfonyl)-5,5-dimethyloctahydro-3aH-4,6-methanoisoindol-3a-yl)methyl (4-iodophenyl)carbamate] | < 0.2 µM | 55 to 59% | Dmax [%] (n) (IDO1 [3]): 59 ± 16 (3) %
CC(C)(C)c1ccc(S(=O)(=O)N2C[C@H]3C[C@H]4C[C@H](C4(C)C)[C@@]3(COC(=O)Nc3ccc(I)cc3)C2)c(I)c1 [compound 57, ((3aS,4R,6R,7aS)-2-((4-(tert-butyl)-2-iodophenyl)sulfonyl)-5,5-dimethyloctahydro-3aH-4,6-methanoisoindol-3a-yl)methyl (4-iodophenyl)carbamate] | < 0.2 µM | 55 to 59% | Dmax [%] (n) (IDO1 [3]): 55 ± 5 (3) %
C#Cc1ccc(NC(=O)OC[C@]23CN(S(=O)(=O)c4ccc(C5(C(F)(F)F)N=N5)cc4)C[C@H]2C[C@H]2C[C@@H]3C2(C)C)cc1 [compound 76, ((3aS,4R,6R,7aS)-5,5-dimethyl-2-((4-(3-(trifluoromethyl)-3H-diazirin-3-yl)phenyl)sulfonyl)octahydro-3aH-4,6-methanoisoindol-3a-yl)methyl (4-ethynylphenyl) carbamate] | < 0.2 µM | – | –

Continued, in another order:

IC50 (IDO1 [1]) | Dmax at 0.1 µM (IDO1 [3]) | Compound | other results
< 0.2 µM | – | COCCOCC(C)(C)c1ccc(S(=O)(=O)N2C[C@H]3C[C@H]4C[C@H](C4(C)C)[C@@]3(COC(=O)Nc3ccc(I)cc3)C2)cc1 [compound 58, ((3aS,4R,6R,7aS)-2-((4-(1-(2-methoxyethoxy)-2-methylpropan-2-yl)phenyl)sulfonyl)-5,5-dimethyloctahydro-3aH-4,6-methanoisoindol-3a-yl)methyl (4-iodophenyl)carbamate] | –
5 to 10 µM | – | CC(C)(C(=O)N1CCOCC1)c1ccc(S(=O)(=O)N2C[C@H]3C[C@H]4C[C@H](C4(C)C)[C@@]3(COC(=O)Nc3ccc(I)cc3)C2)cc1 [compound 59, ((3aS,4R,6R,7aS)-5,5-dimethyl-2-((4-(2-methyl-1-morpholino-1-oxopropan-2-yl)phenyl)sulfonyl)octahydro-3aH-4,6-methanoisoindol-3a-yl)methyl (4-iodophenyl)carbamate] | –
0.2 to 1 µM | – | CN(C)C(=O)C(C)(C)c1ccc(S(=O)(=O)N2C[C@H]3C[C@H]4C[C@H](C4(C)C)[C@@]3(COC(=O)Nc3ccc(I)cc3)C2)cc1 [compound 60, ((3aS,4R,6R,7aS)-2-((4-(1-(dimethylamino)-2-methyl-1-oxopropan-2-yl)phenyl)sulfonyl)-5,5-dimethyloctahydro-3aH-4,6-methanoisoindol-3a-yl)methyl (4-iodophenyl)carbamate] | –
1 to 5 µM | – | CN(C)CC(C)(C)c1ccc(S(=O)(=O)N2C[C@H]3C[C@H]4C[C@H](C4(C)C)[C@@]3(COC(=O)Nc3ccc(I)cc3)C2)cc1 [compound 61, ((3aS,4R,6R,7aS)-2-((4-(1-(dimethylamino)-2-methylpropan-2-yl)phenyl)sulfonyl)-5,5-dimethyloctahydro-3aH-4,6-methanoisoindol-3a-yl)methyl (4-iodophenyl)carbamate] | –
< 0.2 µM | – | COC(=O)CC(C)(C)c1ccc(S(=O)(=O)N2C[C@H]3C[C@H]4C[C@H](C4(C)C)[C@@]3(COC(=O)Nc3ccc(I)cc3)C2)cc1 [compound 62, Methyl 3-(4-(((3aS,4R,6R,7aS)-3a-((((4-iodophenyl)carbamoyl)oxy)methyl)-5,5-dimethyloctahydro-2H-4,6-methanoisoindol-2-yl)sulfonyl)phenyl)-3-methylbutanoate] | –
0.2 to 1 µM | – | CCOC(=O)C(C)(C)c1ccc(S(=O)(=O)N2C[C@H]3C[C@H]4C[C@H](C4(C)C)[C@@]3(COC(=O)Nc3ccc(I)cc3)C2)cc1 [compound 64, Ethyl 2-(4-(((3aS,4R,6R,7aS)-3a-((((4-iodophenyl)carbamoyl)oxy)methyl)-5,5-dimethyloctahydro-2H-4,6-methanoisoindol-2-yl)sulfonyl)phenyl)-2-methylpropanoate] | –
< 0.2 µM | – | COC(=O)C(C)(C)c1ccc(S(=O)(=O)N2C[C@H]3C[C@H]4C[C@H](C4(C)C)[C@@]3(COC(=O)Nc3ccc(I)cc3)C2)c(OC)c1 [compound 66, Methyl 2-(4-(((3aS,4R,6R,7aS)-3a-((((4-iodophenyl)carbamoyl)oxy)methyl)-5,5-dimethyloctahydro-2H-4,6-methanoisoindol-2-yl)sulfonyl)-3-methoxyphenyl)-2-methylpropanoate] | –
< 0.2 µM | 0% | COc1cc(C(C)(C)C(=O)O)ccc1S(=O)(=O)N1C[C@H]2C[C@H]3C[C@H](C3(C)C)[C@@]2(COC(=O)Nc2ccc(I)cc2)C1 [compound 67, 2-(4-(((3aS,4R,6R,7aS)-3a-((((4-iodophenyl)carbamoyl)oxy)methyl)-5,5-dimethyloctahydro-2H-4,6-methanoisoindol-2-yl)sulfonyl)-3-methoxyphenyl)-2-methylpropanoic acid] | –
< 0.2 µM | – | COC(=O)C(C)(C)c1ccc(S(=O)(=O)N2C[C@H]3C[C@H]4C[C@H](C4(C)C)[C@@]3(COC(=O)Nc3ccc(I)cc3)C2)c(Cl)c1 [compound 68, Methyl 2-(3-chloro-4-(((3aS,4R,6R,7aS)-3a-((((4-iodophenyl)carbamoyl)oxy)methyl)-5,5-dimethyloctahydro-2H-4,6-methanoisoindol-2-yl)sulfonyl)phenyl)-2-methylpropanoate] | rhIDO1 enzymatic activity Inhibition [%] [2]: inactive
< 0.2 µM | 27 ± 14% | C#Cc1ccc(NC(=O)OC[C@]23CN(S(=O)(=O)c4ccc(C(C)(C)C(=O)O)cc4C)C[C@H]2C[C@H]2C[C@@H]3C2(C)C)cc1 [compound 75, 2-(4-(((3aS,4R,6R,7aS)-3a-((((4-ethynylphenyl)carbamoyl)oxy)methyl)-5,5-dimethyloctahydro-2H-4,6-methanoisoindol-2-yl)sulfonyl)-3-methylphenyl)-2-methylpropanoic acid] | activity in the cell-based kynurenine assay (IDO1 [1]): low nanomolar range
